Experiment [1] relates to mouse receptor Olfr1193, Olfr1093, Olfr1097, Olrf166, Olfr169, Olfr738 and Olfr742, and human receptor OR4S2 and OR52N5. The experiment is described as follows: cAMP HTRF dose-response assay in HEK293T cells expressing odorant receptors (Example 2). It counts as cell-based. To be noted: increasing concentrations of odorant, receptors co-transfected with human Golf. (Time-resolved FRET reads energy transfer from a long-lived donor to a nearby acceptor.)

The subject of another experiment is Olfr169. The experiment is described as follows: cAMP HTRF dose-response assay (Example 5), Olfr169. It counts as cell-based, mouse. To be noted: increasing concentration. As for the experimental part:
(§1) Functional dose-response experiments were performed to evaluate the level of DMTS activity of the modified cell line expressing individual putative DMTS receptors. Using a cell-based assay, mouse receptor Olfr1193, Olfr1093, Olfr1097, Olrf166, Olfr169, Olfr738 and Olfr742, and human receptor OR4S2 and OR52N5 were tested in an HEK293T cell line wherein the endogenous RTP1 gene has been activated and the odorant receptor chaperone protein was expressed (described in WO2016/201153). The mouse receptor genes were tagged with a Lucy-FLAG®-Rho tag combination and the human receptors were tagged with a Rho-FLAG® tag combination resulting in a tag:receptor fusion protein for the cell based assay. Receptor genes were co-transfected with the canonical olfactory human G-protein alpha subunit Golf gene and were exposed to increasing concentrations of the malodor odorant. Co-expression of the human Golf activates the Gs transduction pathway that leads to an internal cAMP increase upon binding to the appropriate ligand. Odorant-induced activity was detected by measuring the cAMP increase in the cytosol using an Homogeneous Time Resolved Fluorescence (HTRF) based kit (CisBio, cAMP dynamic 2 kit, cat. 62AM4PEJ). […]

In a further experiment the target is T1, OR4S2 (Homo sapiens, UniProt Q8NH73).
T1 sequence (Q8NH73 1-311): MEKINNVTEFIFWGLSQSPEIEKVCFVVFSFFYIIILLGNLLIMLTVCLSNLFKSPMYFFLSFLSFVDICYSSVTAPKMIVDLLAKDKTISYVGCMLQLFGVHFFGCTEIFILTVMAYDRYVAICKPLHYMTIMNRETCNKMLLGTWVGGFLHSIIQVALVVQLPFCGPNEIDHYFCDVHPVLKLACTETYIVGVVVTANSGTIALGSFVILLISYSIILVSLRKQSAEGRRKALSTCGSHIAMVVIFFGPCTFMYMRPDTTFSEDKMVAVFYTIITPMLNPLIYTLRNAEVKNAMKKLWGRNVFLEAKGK
Nature of the experiment: cAMP HTRF dose-response assay (Example 5), OR4S2. The experiment is classed as cell-based. Also on record: expressed in transfected cells. Particulars: increasing concentration. The method, then: as §1

The test system of experiment [2] is mouse receptors Olfr1193, Olfr1093, Olfr1097, Olfr166, Olfr169, Olfr738, Olfr742 and human odorant receptor OR4S2. The experiment is described as follows: cAMP HTRF dose-response assay, DMTS/DMDS response profiles (Example 5). It counts as cell-based. Particulars: increasing concentration of compound; relative to butyric acid control. The method, then:
as §1

Experiment [3] deals with cells that do not express the odorant receptors (HEK293T). The experiment is described as follows: Mock transfection control experiment (Example 5). It counts as cell-based. As for the experimental part: as §1
The target in another experiment is T2, mouse receptor Olfr1093 (Mus musculus, UniProt B2RR12).
T2 construct: cAMP HTRF
T2 sequence (B2RR12 1-322): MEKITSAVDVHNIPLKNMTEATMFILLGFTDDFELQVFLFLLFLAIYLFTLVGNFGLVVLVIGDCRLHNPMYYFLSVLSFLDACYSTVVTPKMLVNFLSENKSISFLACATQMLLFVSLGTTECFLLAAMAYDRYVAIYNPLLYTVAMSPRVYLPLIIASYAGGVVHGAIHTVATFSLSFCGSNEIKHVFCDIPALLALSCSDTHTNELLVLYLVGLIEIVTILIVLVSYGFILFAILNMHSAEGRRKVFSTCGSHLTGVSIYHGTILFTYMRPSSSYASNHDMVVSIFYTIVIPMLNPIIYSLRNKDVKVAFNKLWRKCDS
The experiment is described as follows: cell-based dose-response, cAMP increase by HTRF, HEK293T cells (endogenous RTP1 activated) co-transfected with human Golf, Lucy-FLAG-Rho tagged receptor. To be noted: FIG. 5, Example 5, SEQ ID NO: 4. As for the experimental part:
(§2) Functional dose-response experiments were performed to evaluate the level of DMTS activity of the modified cell line expressing individual putative DMTS receptors. Using a cell-based assay, mouse receptor Olfr1193, Olfr1093, Olfr1097, Olrf166, Olfr169, Olfr738 and Olfr742, and human receptor OR4S2 and OR52N5 were tested in an HEK293T cell line wherein the endogenous RTP1 gene has been activated and the odorant receptor chaperone protein was expressed (described in WO2016/201153). The mouse receptor genes were tagged with a Lucy-FLAG®-Rho tag combination and the human receptors were tagged with a Rho-FLAG® tag combination resulting in a tag:receptor fusion protein for the cell based assay. Receptor genes were co-transfected with the canonical olfactory human G-protein alpha subunit Golf gene and were exposed to increasing concentrations of the malodor odorant. Co-expression of the human Golf activates the Gs transduction pathway that leads to an internal cAMP increase upon binding to the appropriate ligand. Odorant-induced activity was detected by measuring the cAMP increase in the cytosol using an Homogeneous Time Resolved Fluorescence (HTRF) based kit (CisBio, cAMP dynamic 2 kit, cat. 62AM4PEJ). […] The activity levels are reported by the potency of the DMTS induced-response for each receptor as a measure of the EC50 value (the effective concentration at which the receptor responds at its half-maximal activation efficacy level for a given compound).
(§3) Functional dose-response experiments were performed to confirm the DMTS activity on the DMTS receptors identified in Example 2 and to further characterize their response to DMDS. Using the same cell-based assay described in Example 2, mouse receptors Olfr1193, Olfr1093, Olfr1097, Olfr166, Olfr169, Olfr738, Olfr742 and of human odorant receptor OR4S2 were tested with increasing concentration of DMTS, DMDS or butyric acid (control). […] A weak response for OR4S2 and Olfr169 to butyric acid was visible but was too weak to consider butyric acid as a representative ligand for these receptors. The activity levels are reported by the potency of DMTS or DMDS induced-response for each receptor as a measure of the EC50 value, EC50DMTS and EC50DMDS respectively. […] Competitive antagonists at the malodor binding site of these receptors have the potential to reduce the unpleasant perception of both DMTS and DMDS.

For the next experiment, the target named is T3, mouse receptor Olfr1097 (Mus musculus, UniProt Q8VGA2).
T3 construct: cAMP HTRF
T3 sequence (Q8VGA2 1-315): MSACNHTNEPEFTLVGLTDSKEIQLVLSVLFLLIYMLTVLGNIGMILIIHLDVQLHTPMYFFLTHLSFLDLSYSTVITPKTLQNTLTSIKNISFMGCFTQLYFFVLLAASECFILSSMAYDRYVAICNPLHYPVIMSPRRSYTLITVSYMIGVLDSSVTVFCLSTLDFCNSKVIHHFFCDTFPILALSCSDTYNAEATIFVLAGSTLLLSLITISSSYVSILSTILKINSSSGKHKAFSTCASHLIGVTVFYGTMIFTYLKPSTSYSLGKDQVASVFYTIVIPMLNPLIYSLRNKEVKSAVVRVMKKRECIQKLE
The experiment is described as above. To be noted: FIG. 5, Example 5, SEQ ID NO: 6. As for the experimental part: as §2, §3

A further experiment has as its target T4, mouse receptor Olfr1193 (Mus musculus, UniProt A2AV13).
T4 construct: cAMP HTRF
T4 sequence (A2AV13 1-318): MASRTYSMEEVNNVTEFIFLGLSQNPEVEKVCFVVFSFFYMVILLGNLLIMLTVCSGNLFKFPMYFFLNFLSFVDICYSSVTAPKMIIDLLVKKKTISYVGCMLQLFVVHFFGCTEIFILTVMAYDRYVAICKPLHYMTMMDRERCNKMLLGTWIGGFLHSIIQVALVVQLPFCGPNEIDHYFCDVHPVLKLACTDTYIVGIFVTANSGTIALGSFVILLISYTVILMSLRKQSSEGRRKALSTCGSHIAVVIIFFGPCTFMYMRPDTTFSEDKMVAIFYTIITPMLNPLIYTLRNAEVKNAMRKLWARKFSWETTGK
The description is as above. To be noted: FIG. 5, Example 5, SEQ ID NO: 2. The method, then:
as §2, §3

Another experiment deals with T5, mouse receptor Olfr166 (Mus musculus, UniProt Q0VEL6).
T5 construct: cAMP HTRF
T5 sequence (Q0VEL6 1-312): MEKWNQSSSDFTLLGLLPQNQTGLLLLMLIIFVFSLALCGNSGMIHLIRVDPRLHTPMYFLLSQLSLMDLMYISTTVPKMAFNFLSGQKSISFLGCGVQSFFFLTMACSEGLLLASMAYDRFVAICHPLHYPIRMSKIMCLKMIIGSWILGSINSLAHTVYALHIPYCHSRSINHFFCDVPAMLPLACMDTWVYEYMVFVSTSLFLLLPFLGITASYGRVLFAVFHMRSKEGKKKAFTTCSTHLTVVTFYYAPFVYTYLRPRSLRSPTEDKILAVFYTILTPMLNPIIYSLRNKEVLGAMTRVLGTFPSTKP
The experiment is described as above. Particulars: FIG. 5, Example 5, SEQ ID NO: 8. The method, then:
as §2, §3

Another experiment deals with T6, mouse receptor Olfr169 (Mus musculus, UniProt Q7TS53).
T6 construct: cAMP HTRF
T6 sequence (Q7TS53 1-313): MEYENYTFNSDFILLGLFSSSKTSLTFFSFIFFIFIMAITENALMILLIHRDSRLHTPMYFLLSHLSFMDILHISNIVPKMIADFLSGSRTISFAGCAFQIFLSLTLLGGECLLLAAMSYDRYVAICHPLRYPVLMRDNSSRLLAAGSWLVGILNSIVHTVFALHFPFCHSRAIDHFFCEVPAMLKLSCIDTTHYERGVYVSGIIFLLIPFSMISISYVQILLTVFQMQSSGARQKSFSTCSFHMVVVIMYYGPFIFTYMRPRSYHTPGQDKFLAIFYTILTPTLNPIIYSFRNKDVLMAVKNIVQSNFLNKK
The experiment is described as above. Particulars: FIG. 5, Example 5, SEQ ID NO: 10. The method, then: as §2, §3

In the next experiment the target is T7, mouse receptor Olfr738 (Mus musculus, UniProt L7N1X7).
T7 construct: cAMP HTRF
T7 sequence (L7N1X7 1-311): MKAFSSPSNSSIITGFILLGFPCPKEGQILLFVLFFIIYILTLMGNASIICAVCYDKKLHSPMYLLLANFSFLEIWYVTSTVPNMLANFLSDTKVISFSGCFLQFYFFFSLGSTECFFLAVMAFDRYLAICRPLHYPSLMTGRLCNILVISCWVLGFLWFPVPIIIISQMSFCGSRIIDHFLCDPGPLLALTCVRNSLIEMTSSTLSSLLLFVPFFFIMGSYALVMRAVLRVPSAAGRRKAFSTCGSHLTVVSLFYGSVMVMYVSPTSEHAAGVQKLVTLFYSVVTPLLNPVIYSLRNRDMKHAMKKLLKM
The experiment is described as above. To be noted: FIG. 5, Example 5, SEQ ID NO: 12. As for the experimental part: as §2, §3

The target in another experiment is T8, mouse receptor Olfr742 (Mus musculus, UniProt A2RTP5).
T8 construct: cAMP HTRF
T8 sequence (A2RTP5 1-311): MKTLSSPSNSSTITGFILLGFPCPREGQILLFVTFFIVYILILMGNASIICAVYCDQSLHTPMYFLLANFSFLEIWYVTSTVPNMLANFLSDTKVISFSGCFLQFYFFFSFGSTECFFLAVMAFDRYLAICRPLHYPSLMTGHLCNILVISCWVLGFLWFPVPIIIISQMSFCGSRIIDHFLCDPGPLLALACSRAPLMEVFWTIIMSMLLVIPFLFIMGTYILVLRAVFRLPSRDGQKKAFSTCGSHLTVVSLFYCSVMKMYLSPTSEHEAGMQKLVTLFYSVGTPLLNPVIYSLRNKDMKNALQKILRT
The description is as above. Particulars: FIG. 5, Example 5, SEQ ID NO: 14. As for the experimental part:
as §2, §3

pEC50: −log10 of the molar value.

As to `CCCC(=O)O` [butyric acid], in experiment [1], the “receptor activity (cAMP increase in the cytosol)” value is recorded as “not”. In addition, the “response to butyric acid (cAMP)” value in the experiment on Olfr169 and at OR4S2 was “weak response” each time.
What is called pEC50 is the negative decadic logarithm of the EC50, by convention in mol/L. Take `CSSC` [DMDS, dimethyl disulfide]: the “receptor activity (cAMP increase)” value in experiment [2] is given as “strong dose-dependent increase of the receptor activity”. Also, the “activity upon exposure in mock transfected cells” value in experiment [3] is given as “did not show activity”. The pEC50 at mouse receptor Olfr1093 was 3.34; at mouse receptor Olfr1097 it was 4.06; on mouse receptor Olfr1193, 4.40; on mouse receptor Olfr166, 4.92; at mouse receptor Olfr169 it was 3.99; at mouse receptor Olfr738 it was 3.45. Besides, the pEC50 on mouse receptor Olfr742 is 4.16.

Values taken from patent US11787847B2, “Method of identifying malodor modulating compounds” (FIRMENICH SA, priority 2017, dated 2023).
